In patent US8067441B2, “Use of collismycin and derivatives thereof as oxidative stress inhibitors” (Neuropharma, S.A., priority 2005, dated 2011):

Legend:
Format in all cases: cell-based
[1] = system: SH-SY5Y human neuroblastoma cells; experiment: Protection against hydrogen peroxide-induced cell death (LDH); details: 1 h preincubation, H2O2 100 μM, 24 h
Experimental: The aim of this assay is to determine the neuroprotective effect of the compounds of formula (I), when human neuroblastoma cells are exposed to oxidative stress induced by hydrogen peroxide, which is highly deleterious to the cell and its accumulation causes oxidation of cellular targets such as DNA, proteins, and lipids leading to mutagenesis and cell death.
SH-SY5Y human neuroblastoma cells are seeded into 96-well culture plate at a density of 10^4 cells/well. Cells are exposed to the different concentrations of the compound one hour before the treatment with H2O2 100 μM during 24 h. 5 mM NAC, a known anti-oxidant agent was used as a positive control, and preincubated 1 hour before the treatment with H2O2. After 24 h, the medium is removed and cells attached to the bottom of the well are lysed by adding 50 μl of Triton X-100 1% in Krebs-Hepes during 5 minutes at room temperature.
Cell survival was determined in parallel in the same assay.

[2] = system: SH-SY5Y human neuroblastoma cells; experiment: Protection against 6-OHDA-induced cell death, condition B (1 h preincubation, no serum); details: 6-OHDA 50 μM, 24 h, medium without fetal bovine serum
Text: (§1) The aim of this experiment is to determine the protective effect of the compounds of formula (I) against the toxicity caused by 6-hydroxydopamine (6-OHDA). This toxin induces a cell death similar to which occurs in Parkinson's disease, destroying dopaminergic neurons (“MPTP and 6-hydroxydopamine-induced neurodegeneration as models for Parkinson's disease: neuroprotective strategies”; Grunblatt E, et al.; J Neurol. 2000 April; 247 Suppl 2:1195-102).
(§2) Cells are exposed to the treatment with 6-OHDA and, finally, cell death is measured by LDH quantification. As positive control we used NAC. The assay is performed in two different experimental conditions:
B) NAC and the compound of formula (I) are preincubated during 1 hour before the treatment with 6-OHDA 50 μM during 24 hours. The assay is performed in medium without any fetal bovine serum.

[3] = system: SH-SY5Y human neuroblastoma cells; experiment: Protection against 6-OHDA-induced cell death, condition A (2 h preincubation, 10% serum); details: 6-OHDA 75 μM, 16 h, medium with 10% foetal bovine serum
Text: as §1, §2
A) NAC and the compound of formula (I) are preincubated during 2 hours before the treatment with 6-OHDA 75 μM during 16 hours. The assay is performed in medium containing 10% Foetal bovine serum.

SMILES	lowest concentration at which neuroprotective effects were detected [1] [µM]	minimum concentration showing neuroprotective effect [2] [µM]	minimum concentration at which neuroprotective [3] [µM]	neuroprotective activity against 6-OHDA (concentration not given) [3]
COc1cc(/C=N/O)nc(-c2ccccn2)c1 [Caerulomycin A]	0.05	1	1	
COc1cc(-c2ccccn2)nc(CO)c1SC [Collismycin C]	10	10		neuroprotective activity
CSc1cc(C#N)nc(-c2ccccn2)c1 [Compound 1, 4-Methylsulfanyl-[2,2′]bipyridinyl-6-carbonitrile]	5			
O/N=C/c1nc(-c2ccccn2)ccc1F [Compound 2, 5-Fluoro-[2,2′]bipyridinyl-6-carbaldehyde oxime]	0.5	0.5		neuroprotective activity
O/N=C/c1nc(-c2cnccn2)ccc1F [Compound 3, 3-Fluoro-6-pyrazin-2-yl-pyridine-2-carbaldehyde oxime]	10			neuroprotective activity
